These results are taken from patent US20260283162A1, “INDOLEACETIC ACID-ENRICHED ALGAE EXTRACT” (FICOSTERRA, S.L., priority 2023, published 2026).

This series is described as follows: Solubility limit of IAA in water. The class given is physicochemical. The settings on record: apparent, from the IAA concentration in the aqueous extract.

Values after ≈ are worked out from the molar mass of the structure shown.

Usually solubility stands for the dissolved amount per volume that the medium holds.

As for `O=C(O)Cc1c[nH]c2ccccc12` [IAA, indole-3-acetic acid], the solubility was approximately 17 µg/mL (≈ 97 µM).
